Measurements taken from patent US20170275287A1, “NOVEL N2, N4, N7, 6-TETRASUBSTITUTED PTERIDINE-2,4,7-TRIAMINE AND 2, 4, 6, 7-TETRASUBSTITUTED PTERIDINE COMPOUNDS AND METHODS OF SYNTHESIS AND USE THEREOF” (Janus Biotherapeutics, Inc., priority 2014, published 2017).
Like-named read-outs stand apart in the source and are kept apart here.

Legend:
[1] = biological target: T1, TLR7 (Homo sapiens, UniProt Q9NYK1); test: Antagonist/agonist competitive inhibition cross titration (TLR7 agonist JB6011); type: cell-based; conditions: antagonist 10 uM to 4 nM vs agonist 0.12-3.3 μM; preliminary, one assay
T1 sequence (Q9NYK1 27-1049): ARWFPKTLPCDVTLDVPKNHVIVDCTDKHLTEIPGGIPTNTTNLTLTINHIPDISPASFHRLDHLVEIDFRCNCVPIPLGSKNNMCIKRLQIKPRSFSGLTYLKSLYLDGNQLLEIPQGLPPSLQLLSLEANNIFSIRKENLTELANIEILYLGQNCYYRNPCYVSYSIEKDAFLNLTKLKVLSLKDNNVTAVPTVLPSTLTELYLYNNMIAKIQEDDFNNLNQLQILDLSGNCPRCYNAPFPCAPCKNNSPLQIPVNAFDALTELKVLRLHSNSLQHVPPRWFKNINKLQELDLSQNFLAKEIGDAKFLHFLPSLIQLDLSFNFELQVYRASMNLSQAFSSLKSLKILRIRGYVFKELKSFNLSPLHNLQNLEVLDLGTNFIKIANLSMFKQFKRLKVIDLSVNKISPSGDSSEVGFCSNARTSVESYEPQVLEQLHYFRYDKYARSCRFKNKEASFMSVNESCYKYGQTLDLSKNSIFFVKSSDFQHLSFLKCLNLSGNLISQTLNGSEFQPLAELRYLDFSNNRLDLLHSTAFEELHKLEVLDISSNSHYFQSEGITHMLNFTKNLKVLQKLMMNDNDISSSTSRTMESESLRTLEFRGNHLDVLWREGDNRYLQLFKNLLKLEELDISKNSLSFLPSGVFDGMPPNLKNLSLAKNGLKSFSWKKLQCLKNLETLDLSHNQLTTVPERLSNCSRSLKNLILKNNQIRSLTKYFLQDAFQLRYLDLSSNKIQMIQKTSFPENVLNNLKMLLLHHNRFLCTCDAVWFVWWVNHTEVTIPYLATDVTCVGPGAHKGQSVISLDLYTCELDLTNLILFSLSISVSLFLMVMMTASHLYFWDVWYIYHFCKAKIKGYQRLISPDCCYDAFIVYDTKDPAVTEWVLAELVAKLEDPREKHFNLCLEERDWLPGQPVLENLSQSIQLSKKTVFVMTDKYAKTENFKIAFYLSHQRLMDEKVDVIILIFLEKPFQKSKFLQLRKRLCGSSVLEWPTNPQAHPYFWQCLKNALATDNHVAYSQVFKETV
Method: In preliminary results (i.e., one assay result—repeat assays in process), a cross titration of antagonist versus agonist was performed to determine the form of antagonist binding. JB6121 was titrated from 10 uM to 4 nM against various concentrations of challenge agonist. The small molecule TLR7 agonist JB6011 was used. The graph below, while crude, implies that the inhibition of the TLR7 agonist by JB6121 is competitive in nature due to the parallel tracking of the curves as the agonist dose is increased. The agonist range for this experiment was between 0.12 and 3.3 μM or about a 30-fold range.

[2] = Protein binding, human plasma (CEREP); type: in vitro ADME; conditions: read-out: Protein Binding, Human Plasma, % bound (converted)
Method: Preliminary screening measures were conducted by CEREP. All values fall within acceptable limits (Table 5). Solubility assays where performed by CEREP, Seattle, Wash., according to Lipinski, C. A. et al., 1997, Adv. Drug Del. Rev., 46:3-26. Protein binding assays where performed by CEREP, Seattle, Wash., according to Banker, M. J. et al., 2003, J. Pharm. Sci., 92:967-974. Permeability assays where performed by CEREP, Seattle, Wash. according to Hildalgo, I. J., 1998, Gastroenterology, 96:736-749. Metabolic stability assays where performed by CEREP, Seattle, Wash., according to Obach, R. S. et al., 1997, J. Pharmacol. Exp. Ther., 283:46-58. P-glycoprotein inhibition assays where performed by CEREP, Seattle, Wash., according to Polli, J. W. et al., 2001, J. Pharm. Exp. Ther., 299:620-628. Cell viability assays where performed by CEREP, Seattle, Wash., according to Mosmann, T., 1983, J. Immunol. Met. 65:55-62. hERG automated patch clamp assays where performed by CEREP, Seattle, Wash., according to Mathes, C., 2006, Expert Opin. Ther. Targets, 10:230-241.

[3] = Pharmacokinetic study in rats, IV and PO, whole blood (Charles River); type: in vivo, Sprague-Dawley rats
Method: A pharmacokinetic study was performed by Charles River Wilmington Mass., in rats and the doses where 2 mg/kg IV and 10 mg/kg PO and whole blood levels were measured for 72 h. The calculated pharmacokinetic parameters for 24 h are given below in Table 8.
Six (6) male Sprague-Dawley rats were selected from the Testing Facility's rodent colony. The animals were enrolled in the study based on acceptable health as determined by a Testing Facility veterinarian and based on patency of femoral and jugular vein catheters. Fasting was performed for at least 16 hours prior to dosing. Food was also withheld until after the 4 hour time point collection. The animals were placed into 2 groups of 3 animals per group. Each animal in Group 1 received prepared JB6121 by intravenous dose administration at a target dose level of 2 mg/kg and at a dose volume of 1 mL/kg. Immediately following intravenous dosing, the inter-dwelling catheter was flushed with 0.5 mL of saline. Each animal in Group 2 received prepared JB6121 by oral gavage dose administration at a target dose level of 10 mg/kg and at a dose volume of 10 mL/kg.
Whole blood samples (0.300 mL; K2EDTA anticoagulant) were collected from each animal through a jugular vein catheter. Whole blood samples were collected from all animals at 30 minutes and at 1, 2, 4, 6, 12, 24, 48, and 72 hours after dose administration.
Whole blood samples were transferred to the Charle River Bioanalytical Sciences Laboratory, Wilmington Mass., for analysis. Pharmacokinetic parameters were estimated using Watson pharmacokinetic software (Version No. 7.2) using a non-compartmental approach consistent with the IV or PO route of administration.

[4] = male, Sprague-Dawley, whole blood, Rat, PO 10.0 mg/kg

In the case of CN1CCN(c2nc(NCCN3CCOCC3)c3nc(Cl)c(NCCN4CCOCC4)nc3n2)CC1 [JB6121, 6-chloro-2-(4-methylpiperazin-1-yl)-N^4,N^7-bis(2-morpholinoethyl)pteridine-4,7-diamine], the “form of antagonist binding: inhibition of the TLR7 agonist JB6011” value [1] is reported as “competitive”, the fraction unbound [2] is reported as 0.13 and the AUC ([3]; male, Sprague-Dawley, rat, whole blood, iv, 2 mg/kg, Rat, IV 2.0 mg/kg, read-out: AUC) is reported as 2.04 µg·h/mL. For the same compound, the AUC ([3]; male, Sprague-Dawley, rat, whole blood, iv, 2 mg/kg, Rat, IV 2.0 mg/kg, read-out: AUC Extrap) was 2.23 µg·h/mL, the bioavailability ([3]; male, Sprague-Dawley, rat, whole blood, oral, 10 mg/kg, summary statement, read-out: in vivo bioavailability) was greater than 20% and the AUC ([3]; male, Sprague-Dawley, rat, whole blood, po, 10 mg/kg, Rat, PO 10.0 mg/kg, read-out: AUC) was 2.1 µg·h/mL. The AUC ([3]; male, Sprague-Dawley, rat, whole blood, po, 10 mg/kg, Rat, PO 10.0 mg/kg, read-out: AUC Extrap) was 2.31 µg·h/mL, the clearance ([3]; male, Sprague-Dawley, whole blood, Rat, IV 2.0 mg/kg) was 0.984 L/h/kg and the Vd ([3]; male, Sprague-Dawley, whole blood, Rat, IV 2.0 mg/kg, read-out: Vdss) was 21.6 L/kg. The Cmax [3, 4] was 0.149 µg/mL, the Tmax [3, 4] was 3.33 h and the bioavailability ([3]; male, Sprague-Dawley, whole blood, Rat, PO 10.0 mg/kg, read-out: Bioavailability) was 20.6%. The half-life ([3]; male, Sprague-Dawley, Rat, IV 2.0 mg/kg, whole blood, 24 h, read-out: T½ (converted)) was 9.71 h and the “clinically relevant abnormalities during dosing and sampling” value ([3]; rats, 2 mg/kg IV and 10 mg/kg PO) was “no abnormalities were noted”.
For CCCCNc1nc(NCCN2CCOCC2)c2nc(Cl)c(NCCN3CCOCC3)nc2n1 [JB6140], the “form of antagonist binding: inhibition of the TLR7 agonist JB6011” value [1] was “comparable result”.
